Data published in ChEMBL document CHEMBL3751752, “Total synthesis of a biotinylated rocaglate: Selective targeting of the translation factors eIF4AI/II” (Bioorg Med Chem Lett, 2016).
Calls of active or inactive are those of the source. The calls are words filed in the database; no cut-off is given here.

Tests used:
[1] = target: Eukaryotic initiation factor 4A-I (Homo sapiens) (UniProt P60842); experiment: Inhibition of e1F4A1 (unknown origin) in rabbit reticulocyte assessed as capped-dependent translation incubated for 1 hr by dual glo luciferase assay
Chain of Eukaryotic initiation factor 4A-I (Homo sapiens) (P60842 whole entry): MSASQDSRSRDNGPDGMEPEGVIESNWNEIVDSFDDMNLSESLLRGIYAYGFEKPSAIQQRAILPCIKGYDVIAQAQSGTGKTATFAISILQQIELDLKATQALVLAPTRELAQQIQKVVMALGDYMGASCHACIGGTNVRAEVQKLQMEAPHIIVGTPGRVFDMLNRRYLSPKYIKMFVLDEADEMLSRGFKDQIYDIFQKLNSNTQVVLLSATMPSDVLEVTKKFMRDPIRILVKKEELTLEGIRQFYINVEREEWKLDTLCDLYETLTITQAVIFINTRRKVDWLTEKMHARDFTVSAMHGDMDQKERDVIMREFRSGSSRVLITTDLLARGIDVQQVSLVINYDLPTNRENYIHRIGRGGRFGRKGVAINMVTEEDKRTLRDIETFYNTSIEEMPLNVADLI

[2] = target: Eukaryotic initiation factor 4A-I (Mus musculus) (UniProt P60843); experiment: Binding affinity to eIF4A1 in mouse embryonic fibroblasts at 20 uM by streptavidin pulldown assay
Chain of Eukaryotic initiation factor 4A-I (Mus musculus) (P60843 whole entry): as the sequence (P60842 whole entry) above

[3] = target: Eukaryotic initiation factor 4A-II (Mus musculus) (UniProt P10630); experiment: Binding affinity to eIF4A2 in mouse embryonic fibroblasts at 20 uM by streptavidin pulldown assay
Chain of Eukaryotic initiation factor 4A-II (Mus musculus) (P10630 whole entry): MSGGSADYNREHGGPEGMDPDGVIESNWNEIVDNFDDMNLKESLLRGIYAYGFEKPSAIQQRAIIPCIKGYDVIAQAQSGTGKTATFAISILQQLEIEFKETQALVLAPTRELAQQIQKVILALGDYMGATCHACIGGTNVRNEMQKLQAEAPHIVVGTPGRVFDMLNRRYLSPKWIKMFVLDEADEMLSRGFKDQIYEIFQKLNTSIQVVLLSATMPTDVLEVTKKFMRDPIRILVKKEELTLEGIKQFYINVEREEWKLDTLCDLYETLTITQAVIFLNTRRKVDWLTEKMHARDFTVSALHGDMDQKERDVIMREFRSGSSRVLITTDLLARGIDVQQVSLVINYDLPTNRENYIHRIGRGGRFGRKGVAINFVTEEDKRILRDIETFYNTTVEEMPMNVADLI

[4] = target: T1, Prohibitin 1 (Mus musculus) (UniProt P67778); experiment: Binding affinity to prohibitin in mouse embryonic fibroblasts by Western blot method
T1 sequence (whole entry): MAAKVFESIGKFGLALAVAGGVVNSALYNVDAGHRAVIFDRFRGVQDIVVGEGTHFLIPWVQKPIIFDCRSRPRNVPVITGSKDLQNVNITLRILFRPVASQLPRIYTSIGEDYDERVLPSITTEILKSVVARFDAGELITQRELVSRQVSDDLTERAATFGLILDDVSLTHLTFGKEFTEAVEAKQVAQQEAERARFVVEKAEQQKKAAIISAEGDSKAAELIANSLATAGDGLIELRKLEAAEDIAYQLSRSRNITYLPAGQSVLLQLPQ

[5] = target: ATP-dependent RNA helicase DDX3X (Mus musculus) (UniProt Q62167); experiment: Binding affinity to DDX3 in mouse embryonic fibroblasts by Western blot method
Chain of ATP-dependent RNA helicase DDX3X (Mus musculus) (Q62167 whole entry): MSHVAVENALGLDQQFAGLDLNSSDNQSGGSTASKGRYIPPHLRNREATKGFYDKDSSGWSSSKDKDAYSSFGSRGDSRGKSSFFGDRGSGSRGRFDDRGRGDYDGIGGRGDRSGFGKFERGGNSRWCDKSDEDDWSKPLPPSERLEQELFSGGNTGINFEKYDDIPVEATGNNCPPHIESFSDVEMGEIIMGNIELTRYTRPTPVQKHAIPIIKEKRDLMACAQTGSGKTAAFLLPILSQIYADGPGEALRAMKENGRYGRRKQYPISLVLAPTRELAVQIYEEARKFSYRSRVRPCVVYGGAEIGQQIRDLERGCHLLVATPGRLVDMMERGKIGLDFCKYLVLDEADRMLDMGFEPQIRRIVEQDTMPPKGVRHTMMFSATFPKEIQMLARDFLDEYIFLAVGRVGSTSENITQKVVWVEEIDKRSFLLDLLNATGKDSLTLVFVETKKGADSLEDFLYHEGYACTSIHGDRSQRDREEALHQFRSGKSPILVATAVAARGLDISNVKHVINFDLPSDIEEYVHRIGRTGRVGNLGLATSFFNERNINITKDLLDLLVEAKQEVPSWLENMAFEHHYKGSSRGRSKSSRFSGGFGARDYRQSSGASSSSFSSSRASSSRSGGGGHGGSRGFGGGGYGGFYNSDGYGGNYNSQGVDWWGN

[6] = target: Eukaryotic initiation factor 4A-I (Mus musculus) (UniProt P60843); experiment: Binding affinity to eIF4A1 in mouse embryonic fibroblasts by Western blot method
[7] = target: Eukaryotic initiation factor 4A-II (Mus musculus) (UniProt P10630); experiment: Binding affinity to eIF4A2 in mouse embryonic fibroblasts by Western blot method
[8] = target: Eukaryotic initiation factor 4A-III (Mus musculus) (UniProt Q91VC3); experiment: Binding affinity to eIF4A3 in mouse embryonic fibroblasts by Western blot method
Chain of Eukaryotic initiation factor 4A-III (Mus musculus) (Q91VC3 whole entry): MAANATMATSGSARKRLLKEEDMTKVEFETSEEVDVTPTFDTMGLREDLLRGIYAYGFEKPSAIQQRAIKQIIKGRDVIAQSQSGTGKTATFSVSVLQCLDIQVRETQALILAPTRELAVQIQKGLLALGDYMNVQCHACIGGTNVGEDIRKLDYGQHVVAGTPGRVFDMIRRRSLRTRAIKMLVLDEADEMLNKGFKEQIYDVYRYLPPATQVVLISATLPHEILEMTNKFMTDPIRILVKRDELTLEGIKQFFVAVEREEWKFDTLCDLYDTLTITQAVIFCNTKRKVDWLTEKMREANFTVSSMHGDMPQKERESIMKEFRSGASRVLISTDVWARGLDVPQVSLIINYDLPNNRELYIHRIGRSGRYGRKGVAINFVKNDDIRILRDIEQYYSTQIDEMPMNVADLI

[9] = target: Eukaryotic translation initiation factor 4E (Mus musculus) (UniProt P63073); experiment: Binding affinity to eIF4E in mouse embryonic fibroblasts by Western blot method
Chain of Eukaryotic translation initiation factor 4E (Mus musculus) (P63073 whole entry): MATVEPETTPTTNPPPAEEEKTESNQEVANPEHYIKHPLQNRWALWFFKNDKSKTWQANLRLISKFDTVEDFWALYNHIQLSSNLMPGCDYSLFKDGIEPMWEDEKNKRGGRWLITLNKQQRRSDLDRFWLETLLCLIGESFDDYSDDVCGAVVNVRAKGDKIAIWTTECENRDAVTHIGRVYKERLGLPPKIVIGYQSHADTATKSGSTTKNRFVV

SMILES	inhibition [1]	Activity [2]	Activity [3]	Activity [4]	Activity [5]	Activity [6]	Activity [7]	Activity [8]	Activity [9]
COC(=O)[C@H]1[C@@H](O)[C@@]2(O)c3c(OC)cc(OC)cc3O[C@@]2(c2ccc(OC)cc2)[C@@H]1c1ccccc1	Active	Active	Active						
C#CCNC(=O)[C@H]1[C@@H](O)[C@@]2(O)c3c(OC)cc(OC)cc3O[C@@]2(c2ccc(OC)cc2)[C@@H]1c1ccccc1	Active								
COc1ccc([C@@]23Oc4cc(OC)cc(OC)c4[C@]2(O)[C@H](O)[C@H](C(=O)NCc2cn(CCCOCCOCCOCCCNC(=O)CCCC[C@@H]4SC[C@@H]5NC(=O)N[C@@H]54)nn2)[C@H]3c2ccccc2)cc1	Active	Active	Active	inactive	inactive	Active	Active	inactive	inactive
COc1ccc([C@@]23Oc4cc(OC)cc(OC)c4[C@]2(O)[C@H](O)[C@H](C(=O)N(C)C)[C@H]3c2ccccc2)cc1		Active	Active						
COc1ccc([C@@]23Oc4cc(OC)cc(OC)c4[C@]2(O)[C@H](O)[C@H](C(=O)O)[C@H]3c2ccccc2)cc1	Active								
COc1ccc([C@@]23Oc4cc(O[C@@H]5O[C@@H]([C@@H](O)CO)CO[C@H]5OC)cc(OC)c4[C@]2(O)[C@H](O)[C@H](C(=O)NCc2cn(CCCOCCOCCOCCCNC(=O)CCCC[C@@H]4SC[C@@H]5NC(=O)N[C@@H]54)nn2)[C@H]3c2ccccc2)cc1		Active	Active	inactive	inactive	Active	Active	inactive	inactive
COC(=O)[C@H]1[C@@H](O)[C@@]2(O)c3c(OC)cc(O[C@@H]4O[C@@H]([C@@H](O)CO)CO[C@H]4OC)cc3O[C@@]2(c2ccc(OC)cc2)[C@@H]1c1ccccc1	Active	Active	Active						
O=C(O)CCCC[C@@H]1SC[C@@H]2NC(=O)N[C@@H]21		inactive	inactive						
